Measurements published in patent publication US7858655B2, “Drug preparation comprising α-lipoic acid, ambroxol and/or inhibitors of the angiotensin-converting enzyme (ACE) and its use for the treatment of neurodegenerative diseases” (Keyneurotek Pharmaceuticals AG, priority 2004, dated 2010).
Where a name gives a salt, the structure may show the parent alone.

System: neuronal cells in organotypical hippocampal tissue cuts
Assay: transient oxygen/glucose deprivation (OGD) of organotypical hippocampal tissue cuts, neuronal damage
Type: cell-based, rats
Settings: for neuronal damage, % of the damaged surface area, Median / neuronal damage, % of the damaged surface area, Average Value: after standard OGD with the substance applied, cocktail = α-lipoic acid 10 μg/ml, ambroxol 10 μM, Enalapril 20 μg/ml; for neuronal damage, % of the damaged surface area, Average Value: Control OGD (vehicle) 11.70-13.98; for neuroprotective effect, reduction of the neuronal damage after OGD (in words): after transient OGD, versus standard damage
Description: For examining the neuroprotective effect of the thiol-reactive substances, the procedure of a transient ischemia for organotypical hippocampal tissue cuts was used, which procedure was standardized in our laboratory. By such a procedure, there are obtained three-dimensional cultivated explantates having a high prediction value for subsequent clinical experiments. In those tissue cultures containing neuronal as well as non-neuronal cells, highly complex intercellular connections are maintained largely. They are of extraordinary importance for the functionality of the whole CNS. The cerebral tissue cultures are exposed to a degenerative event which results into a death of neuronal cells in analogy to clinical situations. The tissue cuts (375 μm) were prepared subsequently from the hippocampus of rats (P7). The cultivation of those cut cultures was effected on membrane inserts having a pore size of 0.02 μm. After 10 to 12 days of cultivation (37° C. in an incubator; 3.3% CO2; 98% relative air humidity), the restructuration processes within the tissue cultures were finished, and a clinical relevant neurodegenerative event was simulated on the tissue cuts by means of a transient oxygen/glucose deprivation. The effect of the substanc(es) was measured in the form of a standard damage change (vehicle application). […] There was quantified the neuronal damage after a standard OGD with and without the application of the cocktail as well as the damage by the application of the cocktail per se (optional toxicity of the substance). The damage is expressed in % of the damaged surface area. In order to obtain such figures, in each tissue cut the whole surface area was compared with the damaged surface area. […] The experiments are based on the protocol described in Example 2. In the course of the experiments shown in FIGS. […], the protective effect of the cocktail was compared with the standard damage after OGD and with the effect resulting from an application of the single substances. […] Tables […] show the relevant statistical parameters.

SMILES | neuronal damage, % of the damaged surface area, Median [%] | neuronal damage, % of the damaged surface area, Average Value [%] | neuroprotective effect, reduction of the neuronal damage after OGD (in words)
Nc1c(Br)cc(Br)cc1CNC1CCC(O)CC1 (stereo not drawn) [Ambroxol, trans-4-(2-amino-3,5-dibromobenzylamino-) cyclohexane hydrochloride] | 8.32 | 10.79 | neither α-lipoic acid nor ambroxol nor the ACE inhibitor, if applied alone, were capable of reducing the neuronal damage significantly
CCOC(=O)[C@H](CCc1ccccc1)N[C@@H](C)C(=O)N1CCC[C@H]1C(=O)O [Enalapril, 1-{N-[(S)-1-Ethoxycarbonyl-3-phenylpropyl-]L-alanyl-}L-proline] | 8.70 | 11.23 | neither α-lipoic acid nor ambroxol nor the ACE inhibitor, if applied alone, were capable of reducing the neuronal damage significantly
O=C(O)CCCC[C@@H]1CCSS1 [α-Lipoic Acid, (R)-5-(1,2-dithiolane-3-yl-)pentanoic acid] | 13.54 | 14.82 | neither α-lipoic acid nor ambroxol nor the ACE inhibitor, if applied alone, were capable of reducing the neuronal damage significantly
